One test deals with KRAS G12D (Homo sapiens (Human), UniProt P01116, G12D). In words: Inhibitory activity on KRAS G12D nucleotide (GDP-GTP) exchange reaction in vitro (SOS1-dependent, BODIPY FL GDP). It counts as biochemical. The following applies: BODIPY FL GDP-bound KRAS G12D, compound 25° C. 1 hour, then SOS1 and GMPPNP 30 minutes. An excerpt:
Test Example 1: Evaluation of inhibitory activity of compounds on KRAS G12D nucleotide (GDP-GTP) exchange reaction in vitro
Recombinant KRAS G12D (conjugated N-terminus His6-tag, TEV protease cleavage site and KRAS G12D residues 1-169 (SEQ ID NO: 1), prepared by the method described as below) and cleaved recombinant SOS1 (residues 564-1049(SEQ ID NO: 2), prepared by the method as below) proteins were expressed in E. coli and purified by affinity chromatography.
To prepare the recombinant KRAS G12D, the codon-optimized DNA sequence for the recombinant KRAS G12D (conjugated N-terminus His6-tag, TEV protease cleavage site and KRAS G12D residues 1-169 (SEQ ID NO: 3))was synthesized by GeneArt Technology (Life Technologies, Carlsbad, CA, US). The construct was subcloned into the expression vector pET28a and transformed into Escherichia coli BL21 (DE3) strains (Novagen, Madison, WI, US).
The transformed strain was cultivated in 2 L Luria Broth medium with 25 μg/mL kanamycin at a temperature of 37° C. to a density of 0.6 (OD600), then induced for expression with […] IPTG and further cultivated for 4 h. The cell pellet was resuspended in ice-cold lysis buffer containing 50 mM Tris-HCl (pH 7.5), 200 mM NaCl, and 100 μM TCEP (tris(2-carboxyethyl)phosphine).
After sonication, the disrupted debris was removed by centrifugation. The supernatant was applied on to Ni-NTA affinity gels, and the recombinant human KRAS (G12D) eluted fraction was collected. The buffer of the collected fraction was exchanged to the buffer containing 50 mM Tris-HCl (pH 7.5), 200 mM NaCl, 10% Glycerol, and 5 mM DTT by PD-10 column (GE-Healthcare, Chicago, IL, US).
To prepare the cleaved recombinant SOS1, the codon optimized DNA sequences for the recombinant SOS1 (residues 564-1049 with a conjugated N-terminus His6-tag and TEV protease cleavage site (SEQ ID NO: 4)) was synthesized by GeneArt Technology (Life Technologies). The construct was subcloned into the expression vector pET28a and transformed into Escherichia coli BL21 (DE3) strains (Novagen, Madison, WI, USA).
The transformed strain was cultivated in 2 L Terrific Broth medium with 25 μg/mL kanamycin at a temperature of 37° C. to a density of 0.8 (OD600), then shifted to a temperature of 16° C., induced for expression with […] IPTG, and further cultivated for 16 h. The cell pellet was resuspended in ice-cold lysis buffer containing 50 mM Tris-HCl (pH 7.5), 200 mM NaCl, and 100 μM TCEP.
After sonication, the disrupted debris was removed by centrifugation. The supernatant was applied on to Ni-NTA affinity gels, and the recombinant human SOS1 eluted fraction was collected. Then, His6-tagged TEV protease was added to the collected fraction, dialyzed with the ice-cold lysis buffer for 16 h at a temperature of 4° C., and applied on to Ni-NTA affinity gels. The flow-through fraction containing the tag-cleavaged recombinant human SOS1 was collected. The buffer of the collected fraction was exchanged to the buffer containing 50 mM Tris-HCl (pH 7.5), 200 mM NaCl, 10% Glycerol, and 5 mM DTT by PD-10 column (GE-Healthcare).
To prepare BODIPY FL (fluorescent dye) GDP-bound KRAS G12D protein, 50 μM KRAS G12D protein was incubated with 0.5 mM BODIPY FL GDP in a loading buffer (20 mM Tris-HCl (pH 7.5), 50 mM NaCl, 1 mM DTT and 2.5 mM EDTA) for 1 hour on ice. After the incubation, MgCl2 was added to a final concentration of 10 mM, followed by incubation at room temperature for 30 minutes.
The mixture was allowed to pass through a NAP-5 column to remove free nucleotides and purified BODIPY FL GDP-bound KRAS G12D protein was used for compound evaluation.
For the measurement of the inhibitory activity of compounds on GDP-GTP exchange rate of recombinant KRAS G12D, BODIPY FL GDP-bound KRAS G12D protein was incubated with various concentrations of compound in a reaction buffer (20 mM Tris-HCl (pH 7.5), 100 mM NaCl, 1 mM MgCl2, 2 mM DTT, 0.1% Tween 20) at 25° C. for 1 hour. […]

In test [1] the test system is KRAS-G12D mutant cell line (A-427). In words: Growth inhibition activity on KRAS-G12D mutant cell line (A-427), CellTiter-Glo 3D. It counts as cell-based. The following applies: Homo sapiens, 72 h, A-427 cells, 3-day culture with compound, read-out: A427 CTX IC50. Here is the method:
Test Example 2: A measurement test of growth inhibition activity on KRAS-G12D mutant cell line (A-427) (in vitro) A-427 cells (ATCC, Cat #: HTB-53), which are a KRAS-G12D mutant human lung cancer cell line, were suspended in a 10% fetal bovine serum-containing E-MEM medium (manufactured by Fujifilm Wako Pure Chemical Corporation). The cell suspension was seeded into each well of a 384-well U bottom microplate and cultured in an incubator containing 5% CO2 gas at 37° C. for 1 day.
The compound of the present invention was dissolved in DMSO, and the test compound was diluted with DMSO to give a concentration 500 times the final concentration. The solution of the test compound in DMSO was diluted with the medium used for suspending cells and added to each well of the cell-culture plate to give a DMSO final concentration of 0.2%, followed by culture in an incubator containing 5% CO2 gas at 37° C. for another 3 days. The cell count after a 3-day culture in the presence of the compound was measured using CellTiter-Glo 3D Reagent (manufactured by Promega Corporation).
All wells were added with CellTiter-Glo 3D Reagent and mixed for 10 minutes. 30 minutes after mixing, luminescence was measured by a plate reader. The growth inhibition rate was calculated from the following equation, and the concentration of the test compound at which 50% inhibition was achieved (IC50 (μM)) was determined.
Growth Inhibition Rate(%)=(C−T)/(C)×100
T: the emission intensity in a well into which a test compound was added.
C: the emission intensity in a well into which a test compound was not added.
Background: Cellular ATP, detected with luciferase, serves as a proxy for viable cell number.

Sequence of KRAS G12D (P01116 other isoform, or with tags, fused parts or gaps G12D (already in the parent)): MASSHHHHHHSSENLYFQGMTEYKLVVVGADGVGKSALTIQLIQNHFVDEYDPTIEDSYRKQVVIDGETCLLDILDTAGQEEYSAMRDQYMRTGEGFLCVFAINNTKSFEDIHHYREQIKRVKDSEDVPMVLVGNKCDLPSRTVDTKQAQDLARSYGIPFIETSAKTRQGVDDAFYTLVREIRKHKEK

In general, IC50 refers to the point on the concentration scale where inhibition reaches its midpoint. Regarding `CN(C)CC1(COc2nc3c(c(N4CC5CCC(C4)N5)n2)CCN(c2nc(N)cc4cccc(Br)c24)C3)CC1` [Example 22, 1-(4-(3,8-diazabicyclo[3.2.1]octan-3-yl)-2-((1-((dimethylamino)methyl)cyclopropyl)methoxy)-5,8-dihydropyrido[3,4-d]pyrimidin-7 (6H)-yl) -8-bromoisoquinolin-3-amine], the IC50 against KRAS G12D was 13 nM; in test [1], 4090 nM.
On to `C#Cc1cccc2cc(O)cc(C3Cc4nc(OCC5(CN(C)C)CC5)nc(N5CC6CCC(C5)N6)c4CO3)c12` (stereo not drawn) [Example 23, 4-(4-(3,8-diazabicyclo[3.2.1]octan-3-yl)-2-((1-((dimethylamino)methyl)cyclopropyl)methoxy)-7,8-dihydro-5H-pyrano[4,3-d]pyrimidin-7-yl)-5-ethynylnaphthalen-2-ol], for which the IC50 against KRAS G12D came out at 3 nM; in test [1], 1470 nM.
Take `C#Cc1cccc2cccc(C3CCc4c(nc(OCC5(CN(C)C)CC5)nc4N4CC5CCC(C4)N5)C3)c12` (stereo not drawn) [Example 24, 1-(1-(((4-(3,8-diazabicyclo[3.2.1]octan-3-yl)-7-(8-ethynylnaphthalen-1-yl)-5,6,7,8-tetrahydroquinazolin-2-yl)oxy)methyl)cyclopropyl)-N,N-dimethylmethanamine]: the values for the IC50 (on KRAS G12D; in test [1]) were 17 nM and 1220 nM, respectively.
In the same order, the values of `CN1C[C@H](F)C[C@H]1COc1nc2c(c(N3CC4CCC(C3)N4)n1)CCN(c1cc(O)cc3cccc(Br)c13)C2` [Example 27, 4-(4-(3,8-diazabicyclo[3.2.1]octan-3-yl)-2-(((2S,4R)-4-fluoro-1-methylpyrrolidin-2-yl)methoxy)-5,8-dihydropyrido[3,4-d]pyrimidin-7(6H)-yl)-5-bromonaphthalen-2-ol] are 18.5 nM and 650 nM.
Turning to `Oc1cc(N2CCc3c(nc(OCC4(CN5CCOCC5)CC4)nc3N3C[C@@H]4CC[C@H]3CN4)C2)c2c(Br)cccc2c1` [Example 28, 4-(4-((1S,4S)-2,5-diazabicyclo[2.2.2]octan-2-yl)-2-((1-(morpholinomethyl)cyclopropyl)methoxy)-5,8-dihydropyrido[3,4-d]pyrimidin-7(6H)-yl)-5-bromonaphthalen-2-ol], the concentration for half-maximal inhibition (IC50) is 3.6 nM on KRAS G12D and 820 nM in test [1].
As to `CN(C)CC1(COc2nc3c(c(N4CC5CCC(C4)N5)n2)CCN(c2cccc4cccc(Br)c24)C3)CC1(F)F` (stereo not drawn) [Example 29, 1-(1-(((4-(3,8-diazabicyclo[3.2.1]octan-3-yl)-7-(8-bromonaphthalen-1-yl)-5,6,7,8-tetrahydropyrido[3,4-d]pyrimidin-2-yl)oxy)methyl)-2,2-difluorocyclopropyl)-N,N-dimethylmethanamine], the IC50 stood at 37.8 nM against KRAS G12D and 1260 nM in test [1].
Turning to `CN(C)CC1(COc2nc3c(c(N4CC5CCC(C4)N5)n2)CCN(c2cc(O)cc4cccc(Br)c24)C3)CC1(C)C` (stereo not drawn) [Example 30, 4-(4-(3,8-diazabicyclo[3.2.1]octan-3-yl)-2-((1-((dimethylamino)methyl)-2,2-dimethylcyclopropyl)methoxy)-5,8-dihydropyrido[3,4-d]pyrimidin-7(6H)-yl)-5-bromonaphthalen-2-ol], the values for the IC50 (at KRAS G12D; in test [1]) were 11.7 nM and 1380 nM, respectively.
As to `CN1CCC[C@H]1COc1nc2c(c(N3CC4CCC(C3)N4)n1)CCN(c1cc(O)cc3cccc(Br)c13)C2` [Example 31, 4-(4-(3,8-diazabicyclo[3.2.1]octan-3-yl)-2-(((S)-1-methylpyrrolidin-2-yl)methoxy)-5,8-dihydropyrido[3,4-d]pyrimidin-7(6H)-yl)-5-bromonaphthalen-2-ol], the IC50 came to 17.7 nM on KRAS G12D and 1950 nM in test [1].
On to `CO[C@@H]1C[C@@H](COc2nc3c(c(N4CC5CCC(C4)N5)n2)CCN(c2cc(O)cc4cccc(Br)c24)C3)N(C)C1` [Example 32, 4-(4-(3,8-diazabicyclo[3.2.1]octan-3-yl)-2-(((2S,4R)-4-methoxy-1-methylpyrrolidin-2-yl)methoxy)-5,8-dihydropyrido[3,4-d]pyrimidin-7(6H)-yl)-5-bromonaphthalen-2-ol], for which the IC50 against KRAS G12D was found to be 3.2 nM; in test [1] it was 1080 nM.

The values above are taken from patent US20230348495A1, “A COMPOUND HAVING INHIBITORY ACTIVITY AGAINST KRAS G12D MUTATION” (TAIHO PHARMACEUTICAL CO., LTD., priority 2019, published 2023).
